Results on 20 compounds are retold here after ChEMBL document CHEMBL4417635, “2-hydroxyarylamide derivative or pharmaceutically acceptable salt thereof, preparation method thereof, and pharmaceutical composition for preventing or treating cancer containing same as active ingredient” (2013).

Experiment [1] addresses Transmembrane protease serine 4 (Homo sapiens) (UniProt Q9NRS4). Put plainly: Inhibition of TMPRSS4 serine protease domain (Val 205 to Leu 437 residues) (unknown origin) expressed in Escherichia coli BL21 (DE3) at 100 uM using […]-Gln-Ala-Arg-7-amido-4-methylcoumarin hydrochloride substrate and measured for 5 mins at 5 mins intervals by fluorescence based assay relative to control.

For experiment [2] the target is unchanged. Nature of the experiment: Inhibition of TMPRSS4 serine protease domain (Val 205 to Leu 437 residues) (unknown origin) expressed in Escherichia coli BL21 (DE3) at 30 uM using […]-Gln-Ala-Arg-7-amido-4-methylcoumarin hydrochloride substrate and measured for 5 mins at 5 mins intervals by fluorescence based assay relative to control.
For experiment [3] the target is unchanged. Put plainly: Inhibition of TMPRSS4 serine protease domain (Val 205 to Leu 437 residues) (unknown origin) expressed in Escherichia coli BL21 (DE3) at 10 uM using […]-Gln-Ala-Arg-7-amido-4-methylcoumarin hydrochloride substrate and measured for 5 mins at 5 mins intervals by fluorescence based assay relative to control.
Experiment [4] shares this target. Put plainly: Inhibition of TMPRSS4 serine protease domain (Val 205 to Leu 437 residues) (unknown origin) expressed in Escherichia coli BL21 (DE3) using […]-Gln-Ala-Arg-7-amido-4-methylcoumarin hydrochloride substrate and measured for 5 mins at 5 mins intervals by fluorescence based assay relative to control.
The target is the same in experiment [5]. Put plainly: Inhibition of TMPRSS4 (unknown origin) expressed in human SW480 cells assessed as reduction in cell migration at 0.8 uM incubated for 48 hrs by crystal violet staining based assay relative to control.
The target is the same in experiment [6]. Nature of the experiment: Inhibition of TMPRSS4 (unknown origin) expressed in human SW480 cells assessed as reduction in cell migration at 25 uM incubated for 48 hrs by crystal violet staining based assay relative to control.
Experiment [7] has the same target. Nature of the experiment: Inhibition of TMPRSS4 (unknown origin) expressed in human SW480 cells assessed as reduction in cell migration at 5 uM incubated for 48 hrs by crystal violet staining based assay relative to control.
The target is the same in experiment [8]. Nature of the experiment: Inhibition of TMPRSS4 (unknown origin) expressed in human SW480 cells assessed as reduction in cell migration at 2 uM incubated for 48 hrs by crystal violet staining based assay relative to control.

Transmembrane protease serine 4 (Homo sapiens), sequence (Q9NRS4 whole entry, the tested form may be a part): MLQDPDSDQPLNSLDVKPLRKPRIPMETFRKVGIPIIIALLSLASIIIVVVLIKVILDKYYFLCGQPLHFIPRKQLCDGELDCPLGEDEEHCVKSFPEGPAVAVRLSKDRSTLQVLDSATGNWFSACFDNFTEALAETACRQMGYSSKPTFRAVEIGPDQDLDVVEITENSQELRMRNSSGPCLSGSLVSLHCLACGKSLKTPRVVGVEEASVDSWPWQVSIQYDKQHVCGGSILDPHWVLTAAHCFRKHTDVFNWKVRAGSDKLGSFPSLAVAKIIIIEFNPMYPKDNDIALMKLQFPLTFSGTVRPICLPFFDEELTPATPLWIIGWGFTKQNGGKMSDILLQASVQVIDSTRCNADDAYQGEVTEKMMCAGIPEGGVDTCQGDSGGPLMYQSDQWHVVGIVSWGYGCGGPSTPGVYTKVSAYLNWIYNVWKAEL

For `O=C(Nc1cc(Br)cc(C(F)(F)F)c1)c1cc(Cl)ccc1O`, the inhibition in experiment [1] was 100%; in experiment [2] it was 100%; in experiment [3] it was 64%; in experiment [4], “Dose-dependent effect”.
As for `O=C(Nc1ccc(C(F)(F)F)cc1[N+](=O)[O-])c1cc(Cl)ccc1O`, the inhibition in experiment [2] was 98%; in experiment [3] it was 53%; in experiment [4] it was “Dose-dependent effect”; in experiment [5], 76%.
On to `O=C(Nc1cnc2ccccc2c1)c1cc(Cl)ccc1O`, for which the inhibition in experiment [1] is 75%; in experiment [2], 8%; in experiment [4], “Dose-dependent effect”; in experiment [6], 51%.
For the compound `N#Cc1ccc(NC(=O)c2cc(Cl)ccc2O)nc1`, the inhibition was 63% in experiment [2], 26% in experiment [3], “Dose-dependent effect” in experiment [4] and 44% in experiment [7].
With `N#Cc1ccc(NC(=O)c2cc(Cl)ccc2O)c(Cl)c1`, the inhibition is 100% in experiment [1], 92% in experiment [2], “Dose-dependent effect” in experiment [4] and 54% in experiment [8].
`O=C(Nc1cc(C(F)(F)F)ccc1Cl)c1cc(Cl)ccc1O`: the inhibition in experiment [1] is 100%; in experiment [2] it was 99%; in experiment [3], 64%; in experiment [4] it was “Dose-dependent effect”.
Take `O=C(Nc1ccc(Cl)c(C(F)(F)F)c1)c1cc(Cl)ccc1O`: the inhibition in experiment [1] is 99%; in experiment [2] it was 95%; in experiment [3], 71%; in experiment [4] it was “Dose-dependent effect”; in experiment [5] it was 68%.
In the case of `N#Cc1ccc(NC(=O)c2cc(Cl)ccc2O)cc1C(F)(F)F`, the inhibition in experiment [1] is 100%; in experiment [2] it was 88%; in experiment [4], “Dose-dependent effect”; in experiment [8], 81%.
`COc1cc(NC(=O)c2cc(Cl)ccc2O)cc(C(F)(F)F)c1`: the inhibition is 99% in experiment [1]; 88% in experiment [2]; 67% in experiment [3]; “Dose-dependent effect” in experiment [4]; 49% in experiment [5].
On to `O=C(Nc1cc(C(F)(F)F)cc(C(F)(F)F)c1)c1cc(Cl)ccc1O`, for which the inhibition is 100% in experiment [1]; 96% in experiment [2]; 64% in experiment [3]; “Dose-dependent effect” in experiment [4]; 76% in experiment [5].
As for `O=C(Nc1cc(C(F)(F)F)ccc1F)c1cc(Cl)ccc1O`, the inhibition in experiment [1] is 100%; in experiment [2], 100%; in experiment [3], 67 to 100%; in experiment [4] it was “Dose-dependent effect”.
With `O=C(Nc1nc(-c2ccccc2)cs1)c1cc(Cl)ccc1O`, the inhibition was 98% in experiment [1], 91% in experiment [2], “Dose-dependent effect” in experiment [4] and 75% in experiment [8].
On to `O=C(Nc1ccc(Cl)cn1)c1cc(Cl)ccc1O`, for which the inhibition in experiment [1] was 55%; in experiment [2], 14%; in experiment [4], “Dose-dependent effect”.
On to `O=C(Nc1cc(C(F)(F)F)cc(C(F)(F)F)c1)c1cc2ccccc2cc1O`, for which the inhibition is 96% in experiment [2], 58% in experiment [3], “Dose-dependent effect” in experiment [4] and 72% in experiment [5].
As for `O=C(Nc1ccc(Br)c(C(F)(F)F)c1)c1cc(Cl)ccc1O`, the inhibition in experiment [1] is 98%; in experiment [2] it was 46 to 93%; in experiment [3], 30 to 80%; in experiment [4], “Dose-dependent effect”.
For `O=C(Nc1ccc(F)c(C(F)(F)F)c1)c1cc(Cl)ccc1O`, the inhibition in experiment [1] was 98%; in experiment [2] it was 86%; in experiment [3], 64%; in experiment [4], “Dose-dependent effect”.
With `Cc1cc(C)cc(NC(=O)c2cc(Cl)ccc2O)c1`, the inhibition in experiment [1] is 56%; in experiment [2], 44%; in experiment [4], “Dose-dependent effect”.
Turning to `O=C(Nc1nnc(C(F)(F)F)s1)c1cc(Cl)ccc1O`, the inhibition in experiment [1] is 100%; in experiment [2] it was 75%; in experiment [4], “Dose-dependent effect”; in experiment [7] it was 29%.
As for `N#Cc1cccc(NC(=O)c2cc(Cl)ccc2O)c1`, the inhibition in experiment [1] is 88%; in experiment [2], 47%; in experiment [3], 12%; in experiment [4] it was “Dose-dependent effect”.
For the compound `O=C(Nc1ccccc1)c1cc(Cl)ccc1O`, the inhibition in experiment [1] is 75%; in experiment [2] it was 13%; in experiment [4], “Dose-dependent effect”.
